In publication PMC3094704, “S-Petasin, the Main Sesquiterpene of Petasites formosanus, Inhibits Phosphodiesterase Activity and Suppresses Ovalbumin-Induced Airway Hyperresponsiveness” (Evidence-based Complementary and Alternative Medicine : eCAM, 2011):

Legend:
[1] = system: female BALB/c mice; assay: Xylazine/ketamine-induced anesthesia; assay type: in vivo, mouse; conditions: 0.1–1 μmol/kg s.c., 15 min before anesthesia
Description: According to the method described by Robichaud et al. and modified by us, S-petasin (10–100 μmol/kg, s.c.) or rolipram (0.01–1 μmol/kg, s.c.), a reference drug, was injected into 8–12 week-old female BALB/c mice 1 h or 15 min, respectively, prior to an i.p. injection of xylazine (10 mg/kg)/ketamine (70 mg/kg). The vehicle (control) for S-petasin or for rolipram was a mixture of alcohol : DMSO : 30% HPβCD : saline (0.5 : 0.5 : 1 : 8 , v/v), or alcohol : DMSO : PEG 400 : saline (0.5 : 0.5 : 1 : 8, v/v), respectively. After loss of the righting reflex (i.e., when a mouse remained on its back and no longer spontaneously righted itself to a prone position), the duration of anesthesia was measured until its return as an endpoint.

[2] = molecular target: PDE3; assay: Inhibition of PDE3 activity and Lineweaver-Burk analysis; assay type: biochemical, guinea pig
Description: Activities of PDE1–5, partially separated from guinea pig lungs and hearts according to the method described by Ko et al., were measured with a two-step procedure according to the method of Thompson and Appleman, using cAMP with [^3H]-cAMP or cGMP with [^3H]-cGMP as substrates. The enzyme pμreparation (25 μL) was incubated for 30 min at 37°C in a total assay volume of […] containing 50 mM Tris-HCl (pH 7.4), 3 mM MgCl2, 1 mM dithiothreitol, 0.05% BSA, 1 μM cAMP with 0.2 μCi [^3H]-cAMP as a substrate alone or in the presence of 0.1 units calmodulin with 10 μM CaCl2 or 5 μM cGMP, and 1 μM cGMP with 0.2 μCi [^3H]-cGMP as another substrate alone or in the presence of 0.1 units calmodulin with 10 μM CaCl2. […] The reagents and homogenate were mixed on ice, and the reaction was initiated by transferring the mixture to a water bath at 37°C. Following a 30-min incubation, the reaction was stopped by transferring the reaction vessel to a bath of boiling water for 3 min. After cooling on ice, 20 μL of a 1 mg/mL solution of C. atrox snake venom was added to the reaction mixture, and the mixture was incubated at 37°C for 10 min. Unreacted [^3H]-cAMP or [^3H]-cGMP was removed by the addition of 500 μL of a 1-in-1 Tris-HCl (40 mM) buffer suspension of Dowex resin (1 × 8-200) with incubation on ice for 30 min. Each tube was then centrifuged for 2 min at 3700 g, and 150 μL of the supernatant was removed for liquid scintillation counting. […] The total protein in each fraction used was assayed according to the method described by Bradford. The PDE activities are shown as nmol/mg/min in the Lineweaver-Burk analysis.

[3] = molecular target: PDE4; assay: Inhibition of PDE4 activity and Lineweaver-Burk analysis; assay type: biochemical, guinea pig
Description: Activities of PDE1–5, partially separated from guinea pig lungs and hearts according to the method described by Ko et al., were measured with a two-step procedure according to the method of Thompson and Appleman, using cAMP with [^3H]-cAMP or cGMP with [^3H]-cGMP as substrates. The enzyme pμreparation (25 μL) was incubated for 30 min at 37°C in a total assay volume of […] containing 50 mM Tris-HCl (pH 7.4), 3 mM MgCl2, 1 mM dithiothreitol, 0.05% BSA, 1 μM cAMP with 0.2 μCi [^3H]-cAMP as a substrate alone or in the presence of 0.1 units calmodulin with 10 μM CaCl2 or 5 μM cGMP, and 1 μM cGMP with 0.2 μCi [^3H]-cGMP as another substrate alone or in the presence of 0.1 units calmodulin with 10 μM CaCl2. In tests of enzyme inhibition, the reaction mixture contained 10 μL of vehicle or inhibitors, at various concentrations of S-petasin or selective PDE1–5 inhibitors, such as vinpocetin [22], EHNA [23], milrinone, Ro 20-1724 [25] and zaprinast, as reference drugs. The reagents and homogenate were mixed on ice, and the reaction was initiated by transferring the mixture to a water bath at 37°C. Following a 30-min incubation, the reaction was stopped by transferring the reaction vessel to a bath of boiling water for 3 min. After cooling on ice, 20 μL of a 1 mg/mL solution of C. atrox snake venom was added to the reaction mixture, and the mixture was incubated at 37°C for 10 min. Unreacted [^3H]-cAMP or [^3H]-cGMP was removed by the addition of 500 μL of a 1-in-1 Tris-HCl (40 mM) buffer suspension of Dowex resin (1 × 8-200) with incubation on ice for 30 min. Each tube was then centrifuged for 2 min at 3700 g, and 150 μL of the supernatant was removed for liquid scintillation counting. Less than 10% of the tritiated cyclic nucleotide was hydrolyzed in this assay. The total protein in each fraction used was assayed according to the method described by Bradford. The PDE activities are shown as nmol/mg/min in the Lineweaver-Burk analysis.

[4] = system: high-affinity rolipram binding sites (HARBSs) of guinea pig brain cell membranes; assay: Displacement of [3H]-rolipram (PDE4H determination)
Description: When the above-described guinea pigs were sacrificed, the whole brains were removed and homogenized with a glass/Teflon homogenizer (Glas-Col, Terre Haute, IN, USA) in 10 volumes of cold medium (pH 6.5) containing 20 mM Bis-Tris, 2 mM benzamidine, 2 mM EDTA, 50 mM sodium chloride, 0.1 mM PMSF and 1 mM dithiothreitol. At 4°C, the homogenate was centrifuged at 170 g for 5 min to remove connective tissues and blood vessels. The suspended homogenate was then re-centrifuged at 40 000 g for 30 min to separate the cytosolic and particulate portions. The particulate portion was re-suspended in a suspension at a concentration of 400 mg/mL (wet weight/volume), after washing three times with homogenizing buffer. The particulate portion mainly consisted of cell membranes. The binding ability of S-petasin (3–300 μM) or Ro 20-1724 (1–10,000 nM), a reference drug, to high-affinity rolipram binding sites (HARBSs) of the membranes was determined by replacing 2 nM [^3H]-rolipram in a reaction buffer at 30°C for 1 h, according to the method described by previous investigators and modified by us. Briefly, the reaction buffer consisted of 50 mM Tris-HCl and 5 mM MgCl2 (pH 7.5). The total volume of the reaction mixture was 25 μL, consisting of 10 μL of particulate suspension, 10 μL of [^3H]-rolipram and 5 μL of S-petasin or Ro 20-1724. After 1 h, the reaction was terminated by moving the reaction vessel into crushed ice. Then the reaction mixture was transferred onto Whatman GF/B glass-fiber filters, which were soaked in a 0.3% polyethyleneimine solution in a mini-funnel. The reaction mixture was filtered by centrifuging at 90 g for 10 s, and the filtrate was collected into a 1.5 mL Eppendorf tube with a top adapted to the outlet of the mini-funnel. The filters were washed with 300 μL of reaction buffer three times each in the same way, and transferred into 2 mL of cocktail for radiation counting (total binding) using a β-scintillation counter (Beckman, Fullerton, CA, USA). Non-specific binding, which was defined in the presence of 10 μM Ro 20-1724, was subtracted from the total binding to yield the specific binding. The effective concentration (EC50) values of S-petasin and Ro 20-1724, at which a half of [^3H]-rolipram bound onto HARBSs of cell membranes was displaced, were defined as the PDE4H values, and these were related to any adverse effects, such as nausea, vomiting and gastric hypersecretion.

[5] = system: isolated sensitized guinea pig trachea; assay: OVA-induced tracheal contractions and baseline tension in vitro
Description: Male Hartley guinea pigs (500–600 g) were sensitized by intramuscular injections of 0.7 mL of 5% (w/v) OVA in saline on Days 1, 4 and 43, and in adjuvant on Days 25 and 39 into each thigh, according to a method described by Underwood et al. and modified by us. Three days after the last injection, sensitized guinea pigs were sacrificed by cervical dislocation, and their tracheas removed. Each trachea was cut into six segments. Each segment consisted of three cartilage rings. All segments were cut open opposite the trachealis. […] Tissues were suspended in normal Krebs solution under an initial tension of 1.5 g and allowed to equilibrate for at least 1 h with washing at 15-min intervals. After the tissues were precontracted with KCl (60 mM) and washed with normal Krebs solution, OVA (0.1–100 μg/mL) was cumulatively added, and contractions were allowed to reach a steady state at each concentration. […] Therefore, the log concentration-response curves of OVA were constructed in the absence and presence of S-petasin. The tension of the precontraction induced by KCl was set as 100%.

## COc1ccc(C2CNC(=O)C2)cc1OC1CCCC1 (stereo not drawn) [rolipram, reference compound]
[1]
  Duration of xylazine/ketamine-induced anesthesia: dose-dependently and significantly shortened

## Cc1[nH]c(=O)c(C#N)cc1-c1ccncc1 [milrinone, reference compound]
[2]; Lineweaver-Burk analysis, cAMP substrate, read-out: Ki on PDE isozyme 3
  Ki: 1.6 ± 0.2 µM
[2]; Lineweaver-Burk analysis, S-petasin 3–30 μM, milrinone 0.3–3 μM
  Mode of inhibition of PDE3 activity: competitively inhibited
[2]; mean ± SEM (n), read-out: IC50 on PDE isozyme 3
  IC50: 1.5 ± 0.2 µM

## CCCCOc1cc(CC2CNC(=O)N2)ccc1OC (stereo not drawn) [Ro 20-1724, 4-(3-butoxy-4-methoxybenzyl)-2-imidazolidinone, reference compound]
[3]; Lineweaver-Burk analysis, cAMP substrate, read-out: Ki on PDE isozyme 4
  Ki: 4.2 ± 0.7 µM
[3]; Lineweaver-Burk analysis, S-petasin 3–30 μM, Ro 20-1724 1–10 μM
  Mode of inhibition of PDE4 activity: competitively inhibited
[3]; mean ± SEM (n), read-out: IC50 on PDE isozyme 4 (taken as PDE4L value)
  IC50: 6.9 ± 0.6 µM
[4]; HARBSs of guinea pig brain cell membranes
  EC50: 0.0958 ± 0.0136 µM
[4]; at the highest concentration (10 000 nM), 2 nM [3H]-rolipram
  percentage displacement of [3H]-rolipram binding: 100%±2.1%
[5]; 30 μM
  OVA (10 μg/mL)-induced contractions: significantly inhibited
[5]; 3–30 μM
  Baseline tension: concentration-dependently and significantly relaxed
[5]; 10–30 μM
  OVA (10–100 μg/mL)-induced contractions: concentration-dependently inhibited
